Experiment: mn = molality of the nth substance listed, in mol/kg
Details: 100 kPa, Liquid; for viscosity: Capillary tube (Ostwald / Ubbelohde) method; for speed of sound: Frequency=3 MHz, Sing-around technique in a fixed-path interferometer; for mass density: Vibrating tube method

C[C@H](CCC(=O)[O-])[C@H]1CC[C@H]2[C@@H]3CC[C@@H]4C[C@H](O)CC[C@]4(C)[C@H]3C[C@H](O)[C@]12C.[Na+] [sodium deoxycholate] + O
Details | mass density, 308.15 K [kg/m3] | mass density, 313.15 K [kg/m3] | mass density, 318.15 K [kg/m3] | speed of sound, 308.15 K [m/s] | speed of sound, 313.15 K [m/s] | speed of sound, 318.15 K [m/s] | viscosity, 308.15 K [mPa·s] | viscosity, 313.15 K [mPa·s] | viscosity, 318.15 K [mPa·s]
m1 = 0.001 | 994.255 | 992.421 | 990.405 | 1520.1 | 1529.3 | 1536.9 | 0.7203 | 0.6543 | 0.5973
m1 = 0.002 | 994.355 | 992.515 | 990.499 | 1520.5 | 1529.5 | 1537.1 | 0.7215 | 0.6554 | 0.5984
m1 = 0.003 | 994.435 | 992.6 | 990.576 | 1520.7 | 1529.7 | 1537.3 | 0.7225 | 0.6565 | 0.5994
m1 = 0.004 | 994.509 | 992.681 | 990.651 | 1520.8 | 1529.8 | 1537.3 | 0.7254 | 0.6593 | 0.6022
m1 = 0.005 | 994.587 | 992.757 | 990.732 | 1521 | 1530 | 1537.5 | 0.7307 | 0.6645 | 0.6074
m1 = 0.006 | 994.659 | 992.817 | 990.802 | 1521.3 | 1530.3 | 1537.7 | 0.7433 | 0.677 | 0.6197
m1 = 0.007 | 994.739 | 992.91 | 990.892 | 1521.5 | 1530.5 | 1537.9 | 0.752 | 0.6857 | 0.6283
m1 = 0.009 | 994.914 | 993.064 | 991.03 | 1521.9 | 1530.9 | 1538.3 | 0.7601 | 0.6936 | 0.6361
m1 = 0.011 | 995.094 | 993.239 | 991.199 | 1522.2 | 1531.2 | 1538.6 | 0.7644 | 0.6979 | 0.6403
m1 = 0.013 | 995.282 | 993.428 | 991.379 | 1522.6 | 1531.5 | 1538.9 | 0.7685 | 0.7019 | 0.6443
m1 = 0.015 | 995.452 | 993.595 | 991.535 | 1522.8 | 1531.8 | 1539.2 | 0.7762 | 0.7096 | 0.6518
m1 = 0.017 | 995.616 | 993.737 | 991.705 | 1523.2 | 1532 | 1539.5 | 0.7831 | 0.7164 | 0.6586

— the NIST ThermoML archive (doi:10.1016/j.tca.2015.02.014)
